Source: PMC9698773, “Design, Synthesis, Molecular Modeling, and Anticancer Evaluation of New VEGFR-2 Inhibitors Based on the Indolin-2-One Scaffold” (Pharmaceuticals, 2022)
Values joined by “and” are separate entries in the source; they are usually repeats but may differ in a detail not shown here. Equal entries are not always repeated.

System: caspase-9
Experiment: Caspase-9 expression assay (quantitative real-time PCR)
Type: cell-based, human
Settings: HepG2, 1.13 µM, 24 h; control = 1
Experimental: The gene expression fold change of caspase-3 and -9 in the HepG2 cells treated with 1.13 µM of compound 17a for 24 h was determined using quantitative real-time PCR analysis.
The expression of caspase-3 and -9 in the liver HepG2 cells treated with 1.13 μM of 17a was determined using quantitative real-time PCR analysis, as presented in the Supplementary Materials.
Pharmaceuticals 2022, 15, x FOR PEER REVIEW 3 of 22
Figure S1. Simple linear regression for the correlation between cytotoxicity against HepG2 cell line […]
Figure S2. Simple linear regression for the correlation between cytotoxicity against MCF‐7 cell line […]
4.2.3. Cell cycle analysis
To determine the role of the synthesized compounds in cell cycle distribution, cell cycle analysis was performed using propidium iodide (PI) staining and flow cytometry analysis for compound 17a. […] The stained cells were measured using a BD FACSCalibur™ Flow Cytometer, and the data were analyzed using Flowing software (version 2.5.1, Turku Centre for Biotech‐ […]
Flow cytometry cell apoptosis analysis was used to investigate the apoptotic effect of the synthesized compounds. […] The stained cells were measured using a BD FACSCalibur™ Flow Cytometer and analyzed using Flowing software. […]
The expression of BAX and Bcl‐2 proteins were determined using Western blot anal‐ ysis. […]

Compound: O=C1Nc2ccccc2C1=Nc1ccc(C(=O)NNC(=S)Nc2ccccc2)cc1 [Compound 17a, 2-(4-((2-Oxoindolin-3-ylidene)amino)benzoyl)-N-phenylhydrazinecarbothioamide]
- Gene Expression Fold Change (Normalized to β-Actin) Caspases-9: 3.7 fold and 3.703 fold
